Laboratory results as given in ChEMBL document CHEMBL1145280, “Control of hepatitis C: a medicinal chemistry perspective” (J Med Chem, 2005).
Non-standard residues stand in square brackets, D forms with d. Residues, ends and D or L forms follow the SMILES beside them. *: point of attachment. Dip = N[C@H](C(=O)O)C(c1ccccc1)c1ccccc1; Hyp = O=C(O)[C@@H]1C[C@@H](O)CN1; Tic = O=C(O)[C@@H]1Cc2ccccc2CN1; Cha = N[C@@H](CC1CCCCC1)C(=O)O; Nle = CCCC[C@H](N)C(=O)O; Bn = c1ccc(C*)cc1

What follows are molecules tested against T1, NS3 (Hepatitis C virus, UniProt A3EZJ3) (assay: Inhibitory concentration against hepatitis C virus helicase). Settings: not given.
T1 sequence (A3EZJ3 whole entry): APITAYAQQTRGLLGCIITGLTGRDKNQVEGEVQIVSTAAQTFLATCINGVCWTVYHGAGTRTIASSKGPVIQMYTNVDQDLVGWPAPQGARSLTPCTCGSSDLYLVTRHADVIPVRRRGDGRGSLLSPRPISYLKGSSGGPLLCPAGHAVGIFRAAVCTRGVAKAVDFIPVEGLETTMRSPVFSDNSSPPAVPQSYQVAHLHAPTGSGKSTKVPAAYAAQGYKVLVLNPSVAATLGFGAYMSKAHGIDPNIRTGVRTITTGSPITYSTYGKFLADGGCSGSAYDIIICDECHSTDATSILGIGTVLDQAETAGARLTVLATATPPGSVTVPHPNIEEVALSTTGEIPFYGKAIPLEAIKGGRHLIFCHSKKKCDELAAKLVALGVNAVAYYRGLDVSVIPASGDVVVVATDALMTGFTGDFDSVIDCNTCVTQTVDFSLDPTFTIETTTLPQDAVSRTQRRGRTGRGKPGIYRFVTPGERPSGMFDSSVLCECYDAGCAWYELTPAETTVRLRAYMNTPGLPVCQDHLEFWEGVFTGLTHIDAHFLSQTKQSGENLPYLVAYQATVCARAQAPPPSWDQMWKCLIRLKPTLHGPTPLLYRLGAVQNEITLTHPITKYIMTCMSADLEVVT
Parameters: species or system Hepacivirus hominis

IC50	Molecule
0.55 µM	N=c1nc(N)c2ncn([C@H]3O[C@@H](COP(=O)(O)OP(=O)(O)OP(=O)(O)O)[C@H](O)[C@@H]3O)c2c(N)n1
5.5 µM	Nc1nc(=O)c2c(ncn2COCCOCc2ccccc2)c(=O)[nH]1
0.1 µM	COC(=O)[C@@H]1c2cc3c(c(O)c2[C@@H](O[C@@H]2O[C@@H](C)[C@H](OC)[C@@](C)(OC)[C@H]2OC)C[C@]1(C)O)C(=O)c1c(O)cc2c(c1C3=O)O[C@@H]1O[C@@]2(C)[C@H](O)[C@@H](N(C)C)[C@@H]1O [NOGALAMYCIN]
> 1 µM	CC(=O)O[C@H]1C(=O)[C@@]2(C)[C@H]([C@H](OC(=O)c3ccccc3)[C@]3(O)C[C@H](OC(=O)[C@H](O)[C@@H](NC(=O)c4ccccc4)c4ccccc4)C(C)=C1C3(C)C)[C@]1(OC(C)=O)CO[C@@H]1C[C@@H]2O [PACLITAXEL]

The next lines start with the molecule.

Molecule	IC50
COc1cccc2c1C(=O)c1c(O)c3c(c(O)c1C2=O)C[C@@](O)(C(=O)CO)C[C@@H]3O[C@H]1C[C@H](N)[C@@H](O)[C@H](C)O1 [EPIRUBICIN]	0.75 µM
c1cc(CN2CCC(C3=NC4CCCCC4N3)CC2)ccc1CN1CCC(C2=NC3CCCCC3N2)CC1 (stereo not given)	7 µM
NC(=O)c1ncn([C@@H]2O[C@H](CO[P@@](=O)(O)O[P@](=O)(O)OP(=O)(O)O)[C@@H](O)[C@H]2O)n1 [RTP]	180 µM
Brc1c(Br)c(Br)c2[nH]nnc2c1Br [TETRABROMOBENZOTRIAZOLE]	20 µM
O=C(CCCCC(=O)Nc1ccc(-c2nc3ccccc3[nH]2)cc1)Nc1ccc(-c2nc3ccccc3[nH]2)cc1	0.7 µM
NC(=O)c1ncn([C@@H]2O[C@H](COP(=O)(O)OP(=O)(O)O)[C@@H](O)[C@H]2O)n1	250 µM
Nc1nc(=O)c2c(ncn2C2O[C@H](CO)C(O)C2O)c(=O)[nH]1 (single isomer, unassigned)	12 µM
OC[C@H]1O[C@@H](n2nnc3cc(Cl)c(Cl)cc32)[C@H](O)[C@@H]1O	1.5 µM
O=C1NNC(=O)c2c(ncn2[C@H]2O[C@@H](COP(=O)(O)OP(=O)(O)OP(=O)(O)O)[C@H](O)[C@@H]2O)N1	1.5 µM

Each molecule was assayed against T1, NS3 (assay: Inhibitory concentration against hepatitis C virus NS3 protease). Settings: not given.
Parameters: species or system Hepacivirus hominis

IC50	Molecule
6.4 µg/mL	CC(=O)OCCC/C(=C1/SC(=S)N(CC(=O)O)C1=O)c1ccc(Br)cc1

Same assay, conditions: read-out: IC50

IC50	Molecule
6.2 µM	O=C(Nc1cc(Cl)ccc1Oc1ccc2ccccc2c1Cl)c1cc(Cl)cc(Br)c1O
1.7 µM	CC[C@H](C)[C@H](NC(=O)OCc1ccccc1)C(=O)N[C@@H](CC(C)C)C(=O)N[C@@H](CC(F)F)C(=O)C(=O)O
6.5 µM	O=C(Nc1ccc(Oc2ccc(Cl)c3ccccc23)c(Cl)c1)c1cc(Cl)ccc1NS(=O)(=O)c1ccc(Cl)cc1
7 µM	CCCC(=O)c1cc2c(c(O)c1C)C(=O)C(=O)c1c(O)cccc1-2
1 µM	CCCC[C@H](NC(=O)[C@@H]1Cc2ccccc2CN1C(=O)[C@H](CS)NC(=O)[C@H](CC(C)C)NC(=O)[C@@H](NC(=O)[C@@H](NC(=O)[C@H](CCC(=O)O)NC(=O)[C@H](CCC(=O)O)NC(C)=O)C(C)C)C(C)C)C(=O)N[C@@H](CO)C(=O)N[C@@H](Cc1ccc(O)cc1)C(N)=O (Ac-EEVVLC[Tic][Nle]SY-NH2)
12.6 µM	O=C1C=C2C(=CCOC2OC(=O)c2cccc(Br)c2)O1 (stereo not given)
7.2 µM	CC(=O)OC1OCC=C2OC(=O)C=C21 (stereo not given)
1.8 µM	CCCC[C@H](NC(=O)[C@@H]1CCCN1C(=O)[C@H](CS)NC(=O)[C@H](CC1CCCCC1)NC(=O)[C@@H](NC(=O)[C@@H](NC(=O)[C@H](CCC(=O)O)NC(=O)[C@H](CC(=O)O)NC(C)=O)C(c1ccccc1)c1ccccc1)[C@@H](C)CC)C(=O)N[C@@H](CC(=O)O)C(=O)N[C@H](C(N)=O)C(C)C (Ac-DE[Dip]I[Cha]CP[Nle]DV-NH2)
3 µM	COc1ccc2c(O[C@@H]3C[C@H]4C(=O)N[C@]5(C(=O)O)C[C@H]5/C=C\CCCCC[C@H](NC(=O)OC5CCCC5)C(=O)N4C3)cc(-c3csc(NC(C)C)n3)nc2c1 [CILUPREVIR]
1 µM	CC[C@H](C)[C@H](NC(=O)OC(C)(C)C)C(=O)N[C@@H](CC(C)C)C(=O)N[C@@H](CC(F)F)C(=O)C(=O)O
3.2 µM	O=C1NC(=S)S/C1=C/c1cc([N+](=O)[O-])ccc1Sc1ccc(Cl)cc1
0.013 µM	C=C[C@H]1C[C@]1(NC(=O)[C@@H]1C[C@@H](Oc2cc(-c3ccccc3)nc3ccccc23)CN1C(=O)[C@@H](NC(=O)[C@@H](NC(C)=O)C1CCCCC1)C(C)C)C(=O)O

Second part, the molecule before the results:

Molecule	IC50
CC(C)C[C@H](NC(=O)[C@H](CC(=O)O)NC(=O)[C@H](CC1CCCCC1)NC(=O)[C@@H]1CCCC[C@H]1C(=O)O)C(N)=O	15 µM
O=C1C=C2C(=CCOC2O)O1 (stereo not given) [PATULIN]	3.8 µM
CC[C@H](C)[C@H](NC(=O)[C@@H](NC(=O)[C@H](CCC(=O)O)NC(=O)[C@H](CC(=O)O)NC(C)=O)C(c1ccccc1)c1ccccc1)C(=O)N[C@@H](CC1CCCCC1)C(=O)N[C@@H](CS)C(=O)N1CCC[C@H]1C(=O)N[C@@H](CC1CCCCC1)C(=O)N[C@@H](CC(=O)O)C(=O)N[C@H](C(N)=O)C(C)C (Ac-DE[Dip]I[Cha]CP[Cha]DV-NH2)	1.3 µM
CC(=O)N[C@@H](CC(=O)O)C(=O)N[C@@H](CCC(=O)O)C(=O)N[C@@H](CC1CCCCC1)C(=O)N[C@H](C(=O)N1C[C@H](OCc2ccccc2)C[C@H]1C(=O)N[C@@H](CS)C(=O)O)C(C)C (Ac-DE[Cha]V[Hyp](Bn)C-OH)	0.033 µM
CCCC[C@H](NC(=O)[C@@H]1Cc2ccccc2CN1C(=O)[C@H](CS)NC(=O)[C@H](CC1CCCCC1)NC(=O)[C@@H](NC(=O)[C@@H](NC(=O)[C@H](CCC(=O)O)NC(=O)[C@H](CC(=O)O)NC(C)=O)C(c1ccccc1)c1ccccc1)[C@@H](C)CC)C(=O)N[C@@H](CO)C(=O)N[C@@H](Cc1ccc(O)cc1)C(N)=O (Ac-DE[Dip]I[Cha]C[Tic][Nle]SY-NH2)	0.1 µM
Ac-DDIVPC-OH	71 µM
CC(=O)N[C@@H](CC(=O)O)C(=O)N[C@@H](CCC(=O)O)C(=O)N[C@@H](CC1CCCCC1)C(=O)N[C@H](C(=O)N1C[C@@H](OCc2ccccc2)C[C@H]1C(=O)NC1(C(=O)O)CC1)C(C)C	0.051 µM
CCCCCCCCCCCCCNC(=O)c1c(O)cc(O)c([N+](=O)[O-])c1O	5.8 µM

These molecules were tested against Genome polyprotein (Hepatitis C virus genotype 1a (isolate 1) (HCV), UniProt P26664) (assay: Inhibitory concentration against hepatitis C virus polymerase). Settings: not given.
Sequence of Genome polyprotein (P26664 2421-3011 limits assumed): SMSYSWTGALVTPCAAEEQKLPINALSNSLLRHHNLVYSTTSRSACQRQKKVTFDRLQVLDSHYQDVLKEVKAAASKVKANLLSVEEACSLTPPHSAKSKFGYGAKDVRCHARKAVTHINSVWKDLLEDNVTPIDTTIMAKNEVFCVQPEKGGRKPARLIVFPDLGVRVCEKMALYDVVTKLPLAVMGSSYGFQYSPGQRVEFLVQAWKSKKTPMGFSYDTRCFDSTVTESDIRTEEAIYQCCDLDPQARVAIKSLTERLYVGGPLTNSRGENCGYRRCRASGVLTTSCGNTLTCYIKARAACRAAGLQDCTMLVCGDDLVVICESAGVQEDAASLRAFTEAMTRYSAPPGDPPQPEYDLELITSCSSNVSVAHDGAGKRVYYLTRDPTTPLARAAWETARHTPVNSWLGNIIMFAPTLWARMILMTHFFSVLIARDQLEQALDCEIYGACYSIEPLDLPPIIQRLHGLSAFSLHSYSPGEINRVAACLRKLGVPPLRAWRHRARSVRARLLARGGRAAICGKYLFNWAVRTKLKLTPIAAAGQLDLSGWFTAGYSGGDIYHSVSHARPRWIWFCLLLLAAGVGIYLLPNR
Parameters: species or system Hepacivirus hominis

IC50	Molecule
0.11 µM	N#Cc1c(Cl)cccc1-c1cccc(C(=O)CC(=O)C(=O)O)c1
4.3 µM	O=C(O)c1ccc2c(c1)nc(-c1ccccn1)n2C1CCCCC1
0.8 µM	CC(C)CCn1c(=O)c(C2=NS(=O)(=O)c3ccccc3N2)c(O)c2ccccc21
< 1 µM	O=C(N[C@@H](Cc1c[nH]c2ccccc12)C(=O)O)c1ccc2c(c1)nc(-c1ccoc1)n2C1CCCCC1
5.7 µM	O=C(O)C(=O)CC(=O)c1ccccc1

Second part, the molecule before the results:

Molecule	IC50
O=C(NCc1ccccc1Cl)Nc1ccsc1-c1nc(O)c(O)c(C(=O)O)n1	0.1 µM
N#Cc1c(Cl)cc(Cl)cc1-c1cccc(C(=O)CC(=O)C(=O)O)c1	0.045 µM
N#Cc1ccc(Br)cc1Oc1ccccc1C(=O)CC(=O)C(=O)O	0.35 µM
N#Cc1ccc(Br)cc1-c1cccc(C(=O)CC(=O)C(=O)O)c1	0.1 µM
O=C(O)c1ccc2c(c1)nc(-c1ccc(OCc3cc(C(=O)N4CCC(O)CC4)ccc3-c3ccc(Cl)cc3)cc1F)n2C1CCCCC1	< 10 µM
COc1ccc(CCNC(=O)c2ccc3c(c2)nc(-c2ccccn2)n3C2CCCCC2)cc1OC	12 µM

The molecules below were run on Internal ribosome entry site (IRES) (assay: Inhibitory concentration against hepatitis C virus internal ribosomal entry site). Settings: not given.
Format: nucleic-acid assay, Hepacivirus hominis

IC50	Molecule
> 10 µM	CN(C)c1ccc2c(c1)Sc1cc(N(C)C)ccc1N2C(=O)c1ccccc1
2.19 µM	CN(C)c1ccc(Nc2ccc(N(C)C)cc2)cc1
> 10 µM	Nc1ccc(Nc2ccc(N)cc2)cc1
2.86 µM	Nc1ccc2nc3ccc(N)cc3[s+]c2c1 [THIONIN ACETATE]

Molecule	IC50
CN(C)c1ccc(C(=O)c2ccc(N(C)C)cc2)cc1 [MICHLER'S KETONE]	> 10 µM
